Experimental data published in US12053480B2, “Methods and pharmaceutical compositions for treating peripheral demyelinating diseases” (INSERM (INSTITUT NATIONAL DE LA SANTE ET DE LA RECHERCHE …, priority 2015, dated 2024).
“Also recorded” adds a separate entry of the source.

What was measured:
VDAC1 = biological target: T1, VDAC1 (Mus musculus, UniProt Q60932); test: Mitochondrial calcium imaging (mito-GCaMP2, multiphoton) in mSC of mouse sciatic nerve, nerve crush model; type: in vivo; details: mito-GCaMP2; VDAC1 silenced or drug given before crush
T1 construct: strongly expressed in mSC mitochondria; from tissue; host or cells: myelinating Schwann cells (mSC) of the sciatic nerve of living mice (wild type; db/db and +/db in A10)
T1 sequence (Q60932 14-296): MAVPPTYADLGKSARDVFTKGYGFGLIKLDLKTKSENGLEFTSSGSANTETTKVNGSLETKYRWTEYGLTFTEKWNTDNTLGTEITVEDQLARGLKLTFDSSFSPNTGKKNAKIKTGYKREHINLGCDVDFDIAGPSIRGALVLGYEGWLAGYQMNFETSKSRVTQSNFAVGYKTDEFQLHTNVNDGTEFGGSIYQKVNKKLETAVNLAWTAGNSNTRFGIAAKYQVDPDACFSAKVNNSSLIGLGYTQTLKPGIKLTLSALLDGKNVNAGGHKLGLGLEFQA
Procedure: (§1) Mice were anesthetized with isoflurane inhalation and placed under a Stemi2000 microscope (Zeiss). Incision area was shaved and cleaned using betadine solution. After incision, the gluteus superficialis and biceps femoris muscles were separated to reveal the cavity traversed by the sciatic nerve. The nerve was lift out using spatula and a thin glass needle filled with viral solution (8 μl) was introduced into the nerve with a micromanipulator. This solution was injected over 30 min with short pressure pulses using a Picospritzer III (Parker Hannifin) coupled to a pulse generator. After injection, the nerve was replaced into the cavity, the muscles were readjusted, and the wound was closed using clips (for further details see Gonzalez et al., 2014^3).
(§2) TRO19622 drug (Tocris bioscience, Ref. 2906) was diluted in ethanol to 20 mM and then, the solution was diluted in sterile PBS to 20 μM. TRO19622 treatments were realized by 3 mg/kg intraperitoneal (IP) injections of 20 mM solution or by intra sciatic nerve injections of 2 μl of drug solution 2 μM using a Hamilton syringe or a glass needle in sterile conditions 30 minutes before multiphoton image acquisitions or immunohistochemistry and demyelination studies respectively. Methyl jasmonate drug (Sigma-Aldrich, Ref. 392707) was diluted in 1 ml of sterile PBS to 1M or 3M. Methyl jasmonate treatments were realized by intra sciatic nerve injections of 1 μl of drug solution using a glass needle and micromanipulator in sterile conditions following the same virus injections procedure (see in vivo virus injection in the sciatic nerve method) two hours before multiphoton image acquisition. […] All drug concentrations were previously evaluated by Bordet et al, 2007^5; Goldin et al, 2008^6; Sharov et al, 2007^7.
(§3) First injected mouse was anesthetized with 5% of isoflurane a 1.5% of oxygen into the anesthesia system box (World Precision Instruments, Ref. EZ-B800) for 5 minutes. Anesthesia controls were realized^8. Then, mouse was placed in anesthesia mask and the incision area was shaved and cleaned with betadine and ethanol 70% solution. Incision was realized using a scalpel and the skin was retracted using forceps in order to expose the gluteus superficialis and bleeps femoris muscles. Next, the connective tissue that connects both muscles was cut and the sciatic nerve was gently lifted out using a spatula. A flexible bridge was slide below sciatic nerve and it was placed into a plastic first pool fixed to the bridge. Mouse was placed under the multiphoton microscope, the bridge was fixed using magnetic brackets to avoid physiological movement and mouse legs were fixed using clippers. Microscope dark box temperature is controlled to 37° C. during all time-lapse imaging. Finally, a second pool was fixed to the first pool using a drop of agarose low melting 3% (Promega, Ref. V2111) in Leibovitz's L15 medium (Gibco Life Technologies) and filled with deionized water to immerse the objectives 20× or 63× (Carl Zeiss Microscopy).
(§4) All time-lapse images were obtained with a multiphoton microscope Zeiss LSM 7 MP OPO. Mitochondria motility images were acquired by time-lapse recording of one image every five minutes during five hours at 920 nm. GCaMP2 and SypHer probe images were acquired by time-lapse recording of one image every fifteen minutes during five hours at 985 nm. Images were acquired to constant 1% of laser intensity to 100 msec of acquisition time with 512×512 resolution and 10 images of z-stack of 20 μm. Images were saved in Zeiss .czi format and processed using Image J program. For further details see Gonzalez et al., 201X^8
To characterize mitochondria physiology during the demyelination process we combined two in vivo methods. We used the nerve crush model to reliably induce demyelination in the mouse sciatic nerve and a viral approach^19 allowing the expression of different fluorescent probes selectively into mitochondria of myelinating Schwann cells (mSC) in mouse sciatic nerve.

mSC mitochondria [1] = test: Mitochondrial pH imaging (mito-SypHer) in mSC of mouse sciatic nerve; type: in vivo; details: after nerve crush
Procedure: as §1, §2
First injected mouse was anesthetized with 5% of isoflurane a 1.5% of oxygen into the anesthesia system box (World Precision Instruments, Ref. EZ-B800) for 5 minutes. Anesthesia controls were realized^8. Then, mouse was placed in anesthesia mask and the incision area was shaved and cleaned with betadine and ethanol 70% solution. […]

mSC mitochondria [2] = test: Mitochondrial motility imaging (mito-dsRed2) in mSC of mouse sciatic nerve; type: in vivo; details: after nerve crush
Procedure: as §1, §2, §3
as §4, with “Images were saved in Zeiss .czi format and processed using Image J program. For further details see Gonzalez et al., 201X^8” left out

[3] = tested on: phospho-ERK1/2, phospho-p38, phospho-JNK and phospho-c-jun; test: Western blot of MAPK demyelination pathways in CMT1A rats; type: in vivo, rat; details: for activation of phospho-ERK1/2, phospho-p38, phospho-JNK and phospho-c-jun: after 15 and 30 days of treatment
Description: While demyelinating diabetes peripheral neuropathy is a commonly acquired disease, demyelination is also the characteristic feature of a large number of inherited diseases called Charcot-Marie-Tooth diseases (CMT). We therefore sought to test whether the inhibition of VDAC1 function could prevent demyelination in these diseases. We choose CMT1A rat strain^42 as this is arguably the most representative animal model of Charcot-Marie-Tooth disease, mimicking CMT1A the most prevalent CMT in humans^10. Twelve weeks old CMT1A rats were daily treated with TRO19622 for 15 or 30 days and one day or two months after treatment, we analyzed MAPK demyelination pathways by western blot. […] However, these effects disappeared two months after treatment. Then we analyzed phospho-c-jun activation in mSC using immunohistochemistry. […] Next, we measured Schwann cell demyelination and g-ratio by toluidine blue staining on semi-thin sciatic nerve sections and on thin sections using electron microscopy.

CC(C)CCC[C@@H](C)[C@H]1CC[C@H]2[C@@H]3CCC4=C/C(=N\O)CC[C@]4(C)[C@H]3CC[C@]12C [TRO19622, (NZ)—N-[(8S,9S,10R,13R,14S,17R)-10,13-dimethyl-17-[(2R)-6-methylheptan-2-yl]-1,2,6,7,8,9,11,12,14,15,16,17-dodecahydrocyclopenta[a]phenanthren-3-ylidene]hydroxylamine]
mitochondrial calcium release in mSC after nerve crush (VDAC1): able to block calcium release from mitochondria; also recorded: completely abolished; also recorded: blocks mitochondrial calcium release
changes induced by nerve crush in mitochondrial pH not abrogated (mSC mitochondria [1]): 12%
changes induced by nerve crush in mitochondrial motility not abrogated (mSC mitochondria [2]): 20%
activation of phospho-ERK1/2, phospho-p38, phospho-JNK and phospho-c-jun [3]: significant down-regulation
activation of phospho-ERK1/2, phospho-p38, phospho-JNK and phospho-c-jun ([3]; listed as TRO16922): prevented
down-regulation of MAPK demyelination pathways after treatment stop ([3]; two months after treatment): disappeared
